Test results published in patent US7399826B1, “Peptide for promoting healing of fractures” (priority 2003, dated 2008).
No end group written: not given here.

System: ulnar osteotomies in New Zealand rabbits
Assay: Ulnar osteotomy fracture healing study in rabbits
Assay type: in vivo
Conditions: all rabbits (study and control groups); four-week study
Procedure: Ulnar osteotomies were carried out in forty, three-month-old New Zealand rabbits. Half of the rabbits were placed in a study group while the other half was placed in a control group. All the rabbits were anesthetized using intramuscular ketamine 35 mg/kg body weight mixed with Xylazine 5 mg/kg body weight and an ophthalmic band with gentamycin ophthalmic ointment. A dose of prophylactic intramuscular cefuraxmine 25 mg/kg body weight was also administered. The forelimb was shaved and prepped in a sterile fashion. Through a posterior incision, the muscles were retracted and the shaft of the ulna was identified. Osteotomy was carried out equidistant between the olecranon and the wrist joint. The osteotomy was irrigated with normal saline. The wound was closed in layers and dressed with betadine and opsite spray. The animals were kept together in similar conditions. On the third post-operative day, the study group was injected with about 2.5-5 mg/kg of the peptide, synthesized as described above, in 0.25 ml of sterile water around the osteotomy site, while the control group received 0.25 ml of normal saline at the osteotomy site. Every week, five rabbits in the control group and five in the study group were sacrificed and their limbs were dissected and stored in 2% formalin. The study was carried out for four weeks. […]

## MIFVKTLTGKTIL [SHMSP, Met-Ile-Phe-Val-Lys-Thr-Leu-Thr-Gly-Lys-Thr-Ile-Leu]
  tolerability (wound infections, deaths): no wound infections or deaths
